According to ChEMBL document CHEMBL3885861, “Open TG-GATES”:

Species: Rattus norvegicus
Assay: Open TG-GATES - Regimen: Single
Type: toxicity, organism-based, Sprague-Dawley
Parameters: regimen Single, gender Male, age 6 weeks
Settings: in vivo, po, 0 mg/kg, route gavage, dose level Control; for APTT / Bas / Eos / Fbg / Hb / Ht / Lym / MCH / MCHC / MCV / Mono / Neu / PT / Plat / RBC / Ret / WBC: tissue Blood; for KIDNEY_L / KIDNEY_R / KIDNEY_TOTAL: tissue Kidney; for LIVER: tissue Liver; for A/G / ALP / ALT / AST / BUN / CRE / Ca / Cl / DBIL / GLC / IP / K / LDH / Na / PL / RALB / TBIL / TC / TG / TP / gamma-GTP: tissue Plasma

In the case of `CNC(=C[N+](=O)[O-])NCCSCc1ccc(CN(C)C)o1` [RANITIDINE], the TERMINAL_BW (3 h) is reported as 216.9 g, the APTT (3 h) is reported as 20.3 s and the Bas (3 h) is reported as 0%. The Eos (3 h) was 0.4%, the Fbg (3 h) was 215 mg/dL and the Hb (3 h) was 13.7 g/dL. It also gave a Ht (3 h) of 39.6%, a Lym (3 h) of 83.4% and an MCH (3 h) of 21.8 pg. The MCHC (3 h) was 34.7%, the MCV (3 h) was 62.8 fL and the Mono (3 h) was 2.6%. For the same compound, the Neu (3 h) was 10.2%, the PT (3 h) was 12.4 s and the Plat (3 h) was 114.3 x10_4/uL. For the same compound, the RBC (3 h) was 632.2 x10_4/ul, the Ret (3 h) was 6.8% and the WBC (3 h) was 87.5 x10_2/uL. The KIDNEY_L (3 h) was 1 g, the KIDNEY_R (3 h) was 1 g and the KIDNEY_TOTAL (3 h) was 1.9 g. The LIVER (3 h) was 9.7 g, the A/G (3 h) was 1.6 and the ALP (3 h) was 1059 IU/L. For the same compound, the ALT (3 h) was 36.4 IU/L, the AST (3 h) was 70.2 IU/L and the BUN (3 h) was 10.8 mg/dL. It also gave a CRE (3 h) of 0.4 mg/dL, a Ca (3 h) of 10.8 mg/dL and a Cl (3 h) of 103 meq/L. The DBIL (3 h) was 0.068 mg/dL, the GLC (3 h) was 188.2 mg/dL and the IP (3 h) was 8.4 mg/dL. The K (3 h) was 3.8 meq/L, the LDH (3 h) was 130.4 IU/L and the Na (3 h) was 140.8 meq/L. It also gave a PL (3 h) of 136.8 mg/dL, an RALB (3 h) of 3.3 g/dL and a TBIL (3 h) of 0.1 mg/dL. It also gave a TC (3 h) of 75.2 mg/dL, a TG (3 h) of 50.8 mg/dL and a TP (3 h) of 5.3 g/dL. For the same compound, the gamma-GTP (3 h) was 1 IU/L, the TERMINAL_BW (6 h) was 213.6 g and the APTT (6 h) was 19.4 s. The Bas (6 h) was 0%, the Eos (6 h) was 1% and the Fbg (6 h) was 238.2 mg/dL. It also gave a Hb (6 h) of 13.6 g/dL, a Ht (6 h) of 38.7% and a Lym (6 h) of 79%. It also gave an MCH (6 h) of 22.3 pg, an MCHC (6 h) of 35% and an MCV (6 h) of 63.7 fL. For the same compound, the Mono (6 h) was 2.6%, the Neu (6 h) was 15.8% and the PT (6 h) was 12.2 s. The Plat (6 h) was 123.3 x10_4/uL, the RBC (6 h) was 608.8 x10_4/ul and the Ret (6 h) was 7.6%. The WBC (6 h) was 97.4 x10_2/uL, the KIDNEY_L (6 h) was 0.9 g and the KIDNEY_R (6 h) was 0.9 g. It also gave a KIDNEY_TOTAL (6 h) of 1.9 g, an LIVER (6 h) of 9.5 g and an A/G (6 h) of 1.7. The ALP (6 h) was 839.8 IU/L, the ALT (6 h) was 35.2 IU/L and the AST (6 h) was 64.6 IU/L. The BUN (6 h) was 10.2 mg/dL, the CRE (6 h) was 0.4 mg/dL and the Ca (6 h) was 10.7 mg/dL. It also gave a Cl (6 h) of 102.8 meq/L, a DBIL (6 h) of 0.066 mg/dL and a GLC (6 h) of 195.2 mg/dL. The IP (6 h) was 8.6 mg/dL, the K (6 h) was 3.9 meq/L and the LDH (6 h) was 111 IU/L. It also gave a Na (6 h) of 140.2 meq/L, a PL (6 h) of 146 mg/dL and an RALB (6 h) of 3.4 g/dL. For the same compound, the TBIL (6 h) was 0.1 mg/dL, the TC (6 h) was 84.2 mg/dL and the TG (6 h) was 55.4 mg/dL. It also gave a TP (6 h) of 5.4 g/dL, a gamma-GTP (6 h) of 1 IU/L and a TERMINAL_BW (9 h) of 211.2 g. The APTT (9 h) was 20.2 s, the Bas (9 h) was 0% and the Eos (9 h) was 1%. It also gave a Fbg (9 h) of 230 mg/dL, a Hb (9 h) of 13.6 g/dL and a Ht (9 h) of 39.1%. It also gave a Lym (9 h) of 81%, an MCH (9 h) of 21.7 pg and an MCHC (9 h) of 34.8%. It also gave an MCV (9 h) of 62.4 fL, a Mono (9 h) of 2% and a Neu (9 h) of 14.2%. For the same compound, the PT (9 h) was 12.3 s, the Plat (9 h) was 120.9 x10_4/uL and the RBC (9 h) was 627.6 x10_4/ul. For the same compound, the Ret (9 h) was 7%, the WBC (9 h) was 71.4 x10_2/uL and the KIDNEY_L (9 h) was 1 g. The KIDNEY_R (9 h) was 1 g, the KIDNEY_TOTAL (9 h) was 1.9 g and the LIVER (9 h) was 8.8 g. It also gave an A/G (9 h) of 1.6, an ALP (9 h) of 783.8 IU/L and an ALT (9 h) of 29.8 IU/L. For the same compound, the AST (9 h) was 62.8 IU/L, the BUN (9 h) was 10 mg/dL and the CRE (9 h) was 0.4 mg/dL. It also gave a Ca (9 h) of 10.5 mg/dL, a Cl (9 h) of 103.2 meq/L and a DBIL (9 h) of 0.066 mg/dL. The GLC (9 h) was 210.8 mg/dL, the IP (9 h) was 8.5 mg/dL and the K (9 h) was 3.9 meq/L. It also gave an LDH (9 h) of 122.8 IU/L, a Na (9 h) of 141.2 meq/L and a PL (9 h) of 134 mg/dL. The RALB (9 h) was 3.4 g/dL, the TBIL (9 h) was 0.1 mg/dL and the TC (9 h) was 76.8 mg/dL. For the same compound, the TG (9 h) was 28.8 mg/dL, the TP (9 h) was 5.5 g/dL and the gamma-GTP (9 h) was 1.2 IU/L. The TERMINAL_BW (24 h) was 228.8 g, the APTT (24 h) was 21.3 s and the Bas (24 h) was 0.2%. It also gave an Eos (24 h) of 1%, a Fbg (24 h) of 227.4 mg/dL and a Hb (24 h) of 13.7 g/dL. The Ht (24 h) was 39.1%, the Lym (24 h) was 83.6% and the MCH (24 h) was 22.5 pg. It also gave an MCHC (24 h) of 35.2%, an MCV (24 h) of 63.9 fL and a Mono (24 h) of 2.2%. For the same compound, the Neu (24 h) was 11.8%, the PT (24 h) was 11.9 s and the Plat (24 h) was 130.4 x10_4/uL. For the same compound, the RBC (24 h) was 611.2 x10_4/ul, the Ret (24 h) was 6.6% and the WBC (24 h) was 112 x10_2/uL. For the same compound, the KIDNEY_L (24 h) was 1 g, the KIDNEY_R (24 h) was 1 g and the KIDNEY_TOTAL (24 h) was 2.1 g. The LIVER (24 h) was 10.9 g, the A/G (24 h) was 1.6 and the ALP (24 h) was 872.4 IU/L. It also gave an ALT (24 h) of 38.8 IU/L, an AST (24 h) of 62.6 IU/L and a BUN (24 h) of 16 mg/dL. The CRE (24 h) was 0.4 mg/dL, the Ca (24 h) was 10.8 mg/dL and the Cl (24 h) was 102.4 meq/L. For the same compound, the DBIL (24 h) was 0.094 mg/dL, the GLC (24 h) was 190.2 mg/dL and the IP (24 h) was 7.7 mg/dL. It also gave a K (24 h) of 4.1 meq/L, an LDH (24 h) of 121 IU/L and a Na (24 h) of 140.6 meq/L. The PL (24 h) was 148.8 mg/dL, the RALB (24 h) was 3.5 g/dL and the TBIL (24 h) was 0.1 mg/dL. It also gave a TC (24 h) of 77.2 mg/dL, a TG (24 h) of 78.6 mg/dL and a TP (24 h) of 5.7 g/dL. For the same compound, the gamma-GTP (24 h) was 1 IU/L.
